Experimental data reported in US6369069B1 (Aventis Pharma Deutschland GmbH, priority 1998, dated 2002).

System: Na^+-dependent Cl^−/HCO3^− exchanger (NCBE)
Test: Inhibition of the Na+-dependent Cl−/HCO3− exchanger (NCBE) in human endothelial cells (pHi recovery, BCECF fluorescence, FLIPR)
Format: cell-based
Details: 10 μM
Procedure, shortened: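 ECV-304 cells loaded with 5 μM BCECF-AM in NH4Cl-containing saline, then placed in Na+/HCO3−-free buffer to acidify. pHi recovery started with Na+/HCO3− buffer (50 μM HOE 642) plus compound at various concentrations. Fluorescence kinetics over 2 min at 35 °C, normalised to 100% and 0% (HCO3−-free) controls.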

Row | Compound | Residual activity % of the NCBE at 10 μM [%]
1 | CC(C)(C)CC(=O)N(CCOc1ccccc1)Cc1ccc(-c2ccccc2S(=O)(=O)NC#N)cc1 [Example 160] | 71.6
2 | CC(C)(C)CC(=O)N(Cc1ccc(-c2ccccc2S(=O)(=O)NC#N)cc1)CC1CC1 [Example 161] | 81.6
3 | COc1cc(CN(Cc2ccc(-c3ccccc3S(=O)(=O)NC#N)cc2)C(=O)CC(C)(C)C)cc(OC)c1OC [Example 162] | 30.2
4 | CC(C)(C)CC(=O)N(Cc1ccc(F)cc1)Cc1ccc(-c2ccccc2S(=O)(=O)NC#N)cc1 [Example 163] | 93.4
5 | N#CNS(=O)(=O)c1ccccc1-c1ccc(CN(Cc2ccco2)C(=O)COc2ccccc2)cc1 [Example 164] | 76.4
6 | N#CNS(=O)(=O)c1ccccc1-c1ccc(CN(CCc2cccs2)C(=O)COc2ccccc2)cc1 [Example 165] | 56.8
7 | N#CNS(=O)(=O)c1ccccc1-c1ccc(CN(CCOc2ccccc2)C(=O)COc2ccccc2)cc1 [Example 166] | 57.9
8 | N#CNS(=O)(=O)c1ccccc1-c1ccc(CN(Cc2ccccc2Cl)C(=O)COc2ccccc2)cc1 [Example 167] | 47.5
9 | N#CNS(=O)(=O)c1ccccc1-c1ccc(CN(CC2CC2)C(=O)COc2ccccc2)cc1 [Example 168] | 96.4
10 | COc1ccc(CC(=O)N(CCc2cccs2)Cc2ccc(-c3ccccc3S(=O)(=O)NC#N)cc2)cc1 [Example 172] | 89.7
11 | COc1ccc(CC(=O)N(CCOc2ccccc2)Cc2ccc(-c3ccccc3S(=O)(=O)NC#N)cc2)cc1 [Example 173] | 76.4
12 | COc1ccc(CC(=O)N(Cc2ccc(-c3ccccc3S(=O)(=O)NC#N)cc2)Cc2ccccc2Cl)cc1 [Example 174] | 50.2
13 | COc1ccc(CC(=O)N(Cc2ccc(-c3ccccc3S(=O)(=O)NC#N)cc2)CC2CC2)cc1 [Example 175] | 93.2
14 | COc1ccc(CC(=O)N(Cc2ccc(-c3ccccc3S(=O)(=O)NC#N)cc2)Cc2cc(OC)c(OC)c(OC)c2)cc1 [Example 176] | 83.9
15 | COc1ccc(CC(=O)N(Cc2ccc(F)cc2)Cc2ccc(-c3ccccc3S(=O)(=O)NC#N)cc2)cc1 [Example 177] | 64.4
16 | CC(=O)N(Cc1ccc(-c2ccccc2S(=O)(=O)NC#N)cc1)Cc1ccco1 [Example 178] | 70.6
17 | CC(=O)N(CCc1cccs1)Cc1ccc(-c2ccccc2S(=O)(=O)NC#N)cc1 [Example 179] | 78.3
18 | CC(=O)N(CCOc1ccccc1)Cc1ccc(-c2ccccc2S(=O)(=O)NC#N)cc1 [Example 180] | 70.9
19 | CC(=O)N(Cc1ccc(-c2ccccc2S(=O)(=O)NC#N)cc1)Cc1ccccc1Cl [Example 181] | 80.8
20 | CC(=O)N(Cc1ccc(-c2ccccc2S(=O)(=O)NC#N)cc1)CC1CC1 [Example 182] | 74.9

Row | Compound | Residual activity % of the NCBE at 10 μM [%]
21 | CC(=O)N(Cc1ccc(F)cc1)Cc1ccc(-c2ccccc2S(=O)(=O)NC#N)cc1 [Example 185] | 85.0
22 | N#CNS(=O)(=O)c1ccccc1-c1ccc(CN(CCCc2ccccc2)C(=O)CCCc2cccs2)cc1 [Example 186] | 9.7
23 | COCCN(Cc1ccc(-c2ccccc2S(=O)(=O)NC#N)cc1)C(=O)CCCc1cccs1 [Example 187] | 62.4
24 | N#CNS(=O)(=O)c1ccccc1-c1ccc(CN(Cc2ccccn2)C(=O)CCCc2cccs2)cc1 [Example 188] | 52.3
25 | N#CNS(=O)(=O)c1ccccc1-c1ccc(CN(C(=O)CCCc2cccs2)C2CC2)cc1 [Example 189] | 72.5
26 | CN(Cc1ccc(-c2ccccc2S(=O)(=O)NC#N)cc1)C(=O)CCCc1cccs1 [Example 190] | 43.4
27 | CCN(Cc1ccc(-c2ccccc2S(=O)(=O)NC#N)cc1)C(=O)CCCc1cccs1 [Example 191] | 39.3
28 | N#CNS(=O)(=O)c1ccccc1-c1ccc(CN(Cc2nc3ccccc3[nH]2)C(=O)CCCc2cccs2)cc1 [Example 192] | 49.1
29 | COC(=O)C(Cc1ccccc1)N(Cc1ccc(-c2ccccc2S(=O)(=O)NC#N)cc1)C(=O)CCCc1cccs1 (centres unmarked) [Example 193] | 62.8
30 | N#CNS(=O)(=O)c1ccccc1-c1ccc(CN(CCCc2ccccc2)C(=O)C(=O)c2cccs2)cc1 [Example 194] | 61.1
31 | COCCN(Cc1ccc(-c2ccccc2S(=O)(=O)NC#N)cc1)C(=O)C(=O)c1cccs1 [Example 195] | 58.3
32 | N#CNS(=O)(=O)c1ccccc1-c1ccc(CN(Cc2ccccn2)C(=O)C(=O)c2cccs2)cc1 [Example 196] | 62.8
33 | N#CNS(=O)(=O)c1ccccc1-c1ccc(CN(C(=O)C(=O)c2cccs2)C2CC2)cc1 [Example 197] | 79.9
34 | CN(Cc1ccc(-c2ccccc2S(=O)(=O)NC#N)cc1)C(=O)C(=O)c1cccs1 [Example 198] | 51.1
35 | CCN(Cc1ccc(-c2ccccc2S(=O)(=O)NC#N)cc1)C(=O)C(=O)c1cccs1 [Example 199] | 54.7
36 | COC(=O)C(Cc1ccccc1)N(Cc1ccc(-c2ccccc2S(=O)(=O)NC#N)cc1)C(=O)C(=O)c1cccs1 (centres unmarked) [Example 201] | 69.6
37 | N#CNS(=O)(=O)c1ccccc1-c1ccc(CN(CCCc2ccccc2)C(=O)Cc2c[nH]c3ccccc23)cc1 [Example 202] | 38.5
38 | COCCN(Cc1ccc(-c2ccccc2S(=O)(=O)NC#N)cc1)C(=O)Cc1c[nH]c2ccccc12 [Example 203] | 30.3
39 | N#CNS(=O)(=O)c1ccccc1-c1ccc(CN(Cc2ccccn2)C(=O)Cc2c[nH]c3ccccc23)cc1 [Example 204] | 52.4
40 | N#CNS(=O)(=O)c1ccccc1-c1ccc(CN(C(=O)Cc2c[nH]c3ccccc23)C2CC2)cc1 [Example 205] | 41.7

Row | Compound | Residual activity % of the NCBE at 10 μM [%]
41 | CN(Cc1ccc(-c2ccccc2S(=O)(=O)NC#N)cc1)C(=O)Cc1c[nH]c2ccccc12 [Example 206] | 23.8
42 | CCN(Cc1ccc(-c2ccccc2S(=O)(=O)NC#N)cc1)C(=O)Cc1c[nH]c2ccccc12 [Example 207] | 31.0
43 | N#CNS(=O)(=O)c1ccccc1-c1ccc(CN(Cc2nc3ccccc3[nH]2)C(=O)Cc2c[nH]c3ccccc23)cc1 [Example 208] | 50.7
44 | COC(=O)C(Cc1ccccc1)N(Cc1ccc(-c2ccccc2S(=O)(=O)NC#N)cc1)C(=O)Cc1c[nH]c2ccccc12 (centres unmarked) [Example 209] | 56.2
45 | N#CNS(=O)(=O)c1ccccc1-c1ccc(CN(CCCc2ccccc2)C(=O)Cc2csc3ccccc23)cc1 [Example 210] | 66.2
46 | COCCN(Cc1ccc(-c2ccccc2S(=O)(=O)NC#N)cc1)C(=O)Cc1csc2ccccc12 [Example 211] | 50.6
47 | N#CNS(=O)(=O)c1ccccc1-c1ccc(CN(Cc2ccccn2)C(=O)Cc2csc3ccccc23)cc1 [Example 212] | 60.2
48 | N#CNS(=O)(=O)c1ccccc1-c1ccc(CN(C(=O)Cc2csc3ccccc23)C2CC2)cc1 [Example 213] | 45.0
49 | CN(Cc1ccc(-c2ccccc2S(=O)(=O)NC#N)cc1)C(=O)Cc1csc2ccccc12 [Example 214] | 44.3
50 | CCN(Cc1ccc(-c2ccccc2S(=O)(=O)NC#N)cc1)C(=O)Cc1csc2ccccc12 [Example 215] | 65.7
51 | N#CNS(=O)(=O)c1ccccc1-c1ccc(CN(Cc2nc3ccccc3[nH]2)C(=O)Cc2csc3ccccc23)cc1 [Example 216] | 62.2
52 | COC(=O)C(Cc1ccccc1)N(Cc1ccc(-c2ccccc2S(=O)(=O)NC#N)cc1)C(=O)Cc1csc2ccccc12 (centres unmarked) [Example 217] | 46.0
53 | N#CNS(=O)(=O)c1ccccc1-c1ccc(CN(CCCc2ccccc2)C(=O)CCCCc2cccs2)cc1 [Example 218] | 87.1
54 | COCCN(Cc1ccc(-c2ccccc2S(=O)(=O)NC#N)cc1)C(=O)CCCCc1cccs1 [Example 219] | 82.5
55 | N#CNS(=O)(=O)c1ccccc1-c1ccc(CN(Cc2ccccn2)C(=O)CCCCc2cccs2)cc1 [Example 220] | 73.2
56 | N#CNS(=O)(=O)c1ccccc1-c1ccc(CN(C(=O)CCCCc2cccs2)C2CC2)cc1 [Example 221] | 72.3
57 | CN(Cc1ccc(-c2ccccc2S(=O)(=O)NC#N)cc1)C(=O)CCCCc1cccs1 [Example 222] | 76.7
58 | CCN(Cc1ccc(-c2ccccc2S(=O)(=O)NC#N)cc1)C(=O)CCCCc1cccs1 [Example 223] | 53.8
59 | N#CNS(=O)(=O)c1ccccc1-c1ccc(CN(Cc2nc3ccccc3[nH]2)C(=O)CCCCc2cccs2)cc1 [Example 224] | 79.8
